Read-outs that look alike come from different tables or passages of the source.
Columns and labels:
NgTet1 [1] = target: T1, NgTet1 (Naegleria gruberi, UniProt D2W6T1); type: biochemical
T1 construct: His6-tagged full-length Naegleria gruberi NgTet1 (321 a. a.) protein with a thrombin cleavage site; made in house; host or cells: E. coli BL21(DE3)
T1 sequence (D2W6T1 1-321): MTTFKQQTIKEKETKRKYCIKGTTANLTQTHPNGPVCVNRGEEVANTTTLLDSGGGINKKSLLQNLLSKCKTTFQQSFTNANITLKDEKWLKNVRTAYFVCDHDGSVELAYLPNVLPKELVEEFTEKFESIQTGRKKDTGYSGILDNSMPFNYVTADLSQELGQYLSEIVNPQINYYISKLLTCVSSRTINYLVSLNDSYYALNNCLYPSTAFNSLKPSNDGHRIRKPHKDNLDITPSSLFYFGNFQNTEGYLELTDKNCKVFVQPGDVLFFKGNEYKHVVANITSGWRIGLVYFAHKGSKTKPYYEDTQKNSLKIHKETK
Protocol: Double-stranded 12 bp DNA oligomers were added at a final concentration of 20 µM. […]
Double-stranded DNA oligomers were added at a final concentration of 20 µM. […]
All ^1H NMR spectra were recorded at 25 °C using D2O as a reference for internal deuterium lock on a Bruker Avance III 700 MHz equipped with an inverse TCI cryoprobe in 3 or 5 mm diameter tubes with a total sample volume of 160 or 565 μL, respectively. The water signal was reduced using Perfect Echo excitation sculpting suppression. Chemical shifts are reported in ppm relative to D2O (δH = 4.70 ppm).
Spectrometer settings were determined using a control sample containing all reaction components excluding enzyme. TET enzyme was added to an identical sample, and the resulting assay mixture was transferred to an NMR tube before deposition into the instrument. […] Spectrum recordings were carried out consecutively without delay. Data were processed using automated routines on MestReNova v14.2.0; signals of interest were integrated with absolute intensity scaling. ^1H NMR time courses reported in figures are representative results from two or three independent replicates.

NgTet1 [2] = target: T1, NgTet1; experiment: AlphaScreen competition assay with biotinylated 5mC dsDNA; type: binding; conditions: 100 nM NgTet1, 50 nM 5mC dsDNA
Protocol: (§1) AlphaScreen™ Histidine (Nickel Chelate) Detection Kit was used to evaluate displacement of […] (^5mC dsDNA)[33],[34]. Competitor DNA oligomers in assay buffer were manually dispensed onto 384-well ProxiPlates (5 μL) in a 2-fold dilution series. His6-tagged NgTet1 or TET2CDΔLCI in assay buffer was added (5 μL), and the mixture was pre-incubated with the competitor DNA at room temperature for 10 min. Cofactors and biotinylated ^5mC dsDNA in assay buffer were added (5 μL), and the mixture was further incubated at room temperature for 10 min. A mixture of AlphaScreen beads (1:62.5 dilution) in assay buffer was added (5 μL), and the full mixture was incubated at room temperature for 1 h. The final mixtures (20 μL) contained 100 nM NgTet1 (50 nM ^5mC dsDNA) or 12.5 nM TET2CDΔLCI (12.5 nM ^5mC dsDNA), 50 μM sodium L-ascorbate, 5 μM (NH4)2Fe(SO4)2, and 5 μM disodium NOG in assay buffer (50 mM HEPES [pH 7.3], 150 mM NaCl, 0.1% v/v BSA, 0.01% v/v Tween® 20). For the assay interference counter screen, His6-tagged TET protein and biotinylated ^5mC dsDNA were replaced with 1.6 nM biotinylated His6 peptide. Chemiluminescence was measured on a PHERAstar FS/FSX (BMG Labtech) equipped with an AlphaScreen 680 570 module. All AlphaScreen bead manipulations were performed under subdued lighting. Inhibition data was normalised to reactions containing no competitor and fitted using “log(inhibitor) vs. response - Variable slope (four parameters)” non-linear regression model on GraphPad Prism 5. […]
(§2) Fig. S5 TETs bind to DNA in a sequence- and modification-independent manner. A binding assay between a biotinylated 5mC dsDNA oligomer and His6-tagged TET was developed using AlphaScreen Histidine (Nickel Chelate) assay. […] Conditions: a 100 nM NgTet1 (50 nM 5mC dsDNA), b 12.5 nM TET2CDΔLCI (12.5 nM 5mC dsDNA), c 1.6 nM biotinylated His6 peptide. Each assay was supplemented with 50 μM sodium L-ascorbate, 5 μM (NH4)2Fe(SO4)2, and 5 μM disodium NOG. Data shown as the mean of three to four experimental replicates (n = 3–4; mean ± SD); tabulated data reported as the mean of two independent replicates (n = 2).

TET2CDΔLCI = target: T2, TET2CDΔLCI (Homo sapiens, UniProt Q6N021); experiment: as above; type: binding; conditions: 12.5 nM TET2CDΔLCI, 12.5 nM 5mC dsDNA
T2 construct: FLAG-[thrombin cleavage site]-SUMO (N); made in house; host or cells: E. coli
Protocol: as §1, §2

5HC DNA: non-methylated DNA of the same sequence, 5'-ACC ACC GGT GGT-3', non-substrate (DNA ACCACCGGTGGT; DNA, backbone not given here)
succinate (NgTet1 [1]; n = 1, time (min) 5HC DNA 49.0833, AT DNA 48.9667, 5mC DNA 48.95): 37.2861 µM | succinate (NgTet1 [1]; n = 1, time (min) 5HC DNA 52.1667, AT DNA 52.05, 5mC DNA 52.0333): 38.1768 µM | succinate (NgTet1 [1]; n = 1, time (min) 5HC DNA 55.25, AT DNA 55.1167, 5mC DNA 55.1167): 38.5101 µM | succinate (NgTet1 [1]; n = 1, time (min) 5HC DNA 58.3333, AT DNA 58.2, 5mC DNA 58.2): 39.4428 µM | succinate (NgTet1 [1]; n = 1, time (min) 5HC DNA 61.4, AT DNA 61.2833, 5mC DNA 61.2833): 40.1071 µM | succinate (NgTet1 [1]; n = 1, time (min) 5HC DNA 64.4833, AT DNA 64.3833, 5mC DNA 64.35): 40.323 µM | succinate (NgTet1 [1]; n = 2, time (min) 5HC DNA 5.81667, AT DNA 5.61667, 5mC DNA 6.08333): 6.9553 µM | succinate (NgTet1 [1]; n = 2, time (min) 5HC DNA 8.88333, AT DNA 8.7, 5mC DNA 9.16667): 12.0978 µM | succinate (NgTet1 [1]; n = 2, time (min) 5HC DNA 12.0333, AT DNA 11.7833, 5mC DNA 12.25): 15.5692 µM | succinate (NgTet1 [1]; n = 2, time (min) 5HC DNA 15.1167, AT DNA 14.8667, 5mC DNA 15.3167): 18.665 µM | succinate (NgTet1 [1]; n = 2, time (min) 5HC DNA 18.1833, AT DNA 17.9333, 5mC DNA 18.4): 21.5442 µM | succinate (NgTet1 [1]; n = 2, time (min) 5HC DNA 21.2667, AT DNA 21.0167, 5mC DNA 21.4833): 23.7344 µM | succinate (NgTet1 [1]; n = 2, time (min) 5HC DNA 24.35, AT DNA 24.1, 5mC DNA 24.5667): 25.3146 µM | succinate (NgTet1 [1]; n = 2, time (min) 5HC DNA 27.4333, AT DNA 27.1833, 5mC DNA 27.65): 27.7156 µM | succinate (NgTet1 [1]; n = 2, time (min) 5HC DNA 30.5167, AT DNA 30.2667, 5mC DNA 30.7333): 29.219 µM | succinate (NgTet1 [1]; n = 2, time (min) 5HC DNA 33.6, AT DNA 33.35, 5mC DNA 33.8167): 30.6366 µM | succinate (NgTet1 [1]; n = 2, time (min) 5HC DNA 36.6833, AT DNA 36.4333, 5mC DNA 36.9): 31.7592 µM | succinate (NgTet1 [1]; n = 2, time (min) 5HC DNA 39.7667, AT DNA 39.5167, 5mC DNA 39.9833): 33.6089 µM | succinate (NgTet1 [1]; n = 2, time (min) 5HC DNA 42.8333, AT DNA 42.6, 5mC DNA 43.0667): 34.5619 µM | succinate (NgTet1 [1]; n = 2, time (min) 5HC DNA 45.9167, AT DNA 45.6833, 5mC DNA 46.15): 35.6503 µM | succinate (NgTet1 [1]; n = 2, time (min) 5HC DNA 49, AT DNA 48.7667, 5mC DNA 49.2333): 37.1492 µM | succinate (NgTet1 [1]; n = 2, time (min) 5HC DNA 52.0833, AT DNA 51.85, 5mC DNA 52.3167): 37.4628 µM | succinate (NgTet1 [1]; n = 2, time (min) 5HC DNA 55.1667, AT DNA 54.9333, 5mC DNA 55.4): 38.3288 µM | succinate (NgTet1 [1]; n = 2, time (min) 5HC DNA 58.25, AT DNA 58.0167, 5mC DNA 58.4833): 38.622 µM | succinate (NgTet1 [1]; n = 2, time (min) 5HC DNA 61.3333, AT DNA 61.1, 5mC DNA 61.5667): 40.1844 µM | succinate (NgTet1 [1]; n = 2, time (min) 5HC DNA 64.4167, AT DNA 64.1667, 5mC DNA 64.65): 40.2655 µM | Relative V0 NgTet1 (NgTet1 [1]; relative to reactions without DNA): 3.6 | Vmax^app (NgTet1 [1]; with 20 µM 5HC DNA): 6.47 µM/min | kcat^app (NgTet1 [1]; with 20 µM 5HC DNA): 0.0217 s⁻¹ | IC50 (NgTet1 [2]): 57.5 µM | competition pIC50 NgTet1 (NgTet1 [2]; n = 2): 4.24 | IC50 (TET2CDΔLCI): 8.91 µM | competition pIC50 TET2CDΔLCI (TET2CDΔLCI; n = 2): 5.05

Source: paper PMC11662004 (Communications Chemistry, 2024)
